Results: patent US7365056B2, “Substituted 9a-N-(N′-(sulfonyl)phenylcarbamoyl)derivatives of 9-deoxo-9-dihydro-9a-aza-9a-homoerithomycin A and 5-0-desosaminyl-9-deoxo-9-dihydro-9-a-aza-9a-homoerithronolide A” (GlaxoSmithKline istrazivacki centar Zagreb d.o, priority 2002, dated 2008)
In brackets after ≈: the same amount, converted by molar mass.

Tested on: S. pyogenes iMLS resistante strain
Experiment: MIC by broth dilution (NCCLS M7-A2), S. pyogenes iMLS resistant strain
Assay type: cell-based
Settings: MIC = concentration showing 90% growth inhibition, tested range 64 to 0.125 μg/ml
Protocol: Final concentration of test substances were in range from 64 to 0.125 μg/ml. MIC levels for all compound were determinated on panel of susceptible and resistant Gram positive bacterial strains (S. aureus, S. pneumoniae and S. pyogenes) and on Gram negative strains (E. coli, H. influenzae, E. faecalis, M. catarrhalis).

SMILES | MIC
CCC1OC(=O)C(C)C(OC2CC(C)(OC)C(O)C(C)O2)C(C)C(OC2OC(C)CC(N(C)C)C2O)C(C)(O)CC(C)CN(C(=O)Nc2ccc(S(=O)(=O)Nc3ccccc3)cc2)C(C)C(O)C1(C)O (centres unmarked) [Example 4, 9-Deoxo-9-dihydro-9a-N-{N′-[4-(phenylaminosulfonyl)phenyl]carbamoyl}-9a-aza-9a-homoerithromycin A] | 2 µg/mL (≈ 1.98 µM)
CCC1OC(=O)C(C)C(OC2CC(C)(OC)C(O)C(C)O2)C(C)C(OC2OC(C)CC(N(C)C)C2O)C(C)(O)CC(C)CN(C(=O)Nc2ccc(S(N)(=O)=O)cc2)C(C)C(O)C1(C)O (centres unmarked) [Example 3, 9-Deoxo-9-dihydro-9a-N-{[4-(aminosulfonyl)phenyl]carbamoyl}-9a-aza-9a-homoerithromycin A] | 2 µg/mL (≈ 2.14 µM)
